Laboratory results: US12692238B2, “Substituted pyridazinone herbicides” (FMC CORPORATION, priority 2020, dated 2026)

Tests used:
Type in all cases: in vivo
kochia (Bassia scoparia) [1] = experiment: Test A preemergence, kochia; settings: Bassia scoparia, pre-emergence, 240 h, 0 to 100 scale, 10 days, read-out: Plant response rating, Kochia; for pest or weed control at 31 g/ha: 31 g ai/ha; for pest or weed control at 125 g/ha: 125 g ai/ha
How it was run: (§1)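 Seeds sown in loam–sand blend received a directed soil spray preemergence; postemergence plants at 2 to 10 cm, one- to two-leaf stage, were sprayed. Compounds were formulated in non-phytotoxic solvent with surfactant. After 10 days in greenhouse, injury was rated visually versus untreated controls, 0 (no effect) to 100 (complete control).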

[2] = test system: ryegrass, Italian (Italian ryegrass, Lolium multiflorum); experiment: Test A preemergence, ryegrass, Italian; settings: Lolium multiflorum, pre-emergence, 240 h, 0 to 100 scale, 10 days, read-out: Plant response rating, Ryegrass, Italian; for pest or weed control at 31 g/ha: 31 g ai/ha; for pest or weed control at 125 g/ha: 125 g ai/ha
How it was run: as §1

rice (Oryza sativa) = experiment: Test B flooded paddy test, rice; settings: Oryza sativa; 250 g ai/ha, Flood; visually evaluated after 10 to 14 days; read-out: Plant response rating, Rice (0 to 100 scale where 0 is no effect and 100 is complete control)
How it was run: (§2)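 Plants grown to 2-leaf stage; pots flooded 3 cm above soil and compound applied directly into paddy water, depth maintained throughout. After 10 to 14 days in greenhouse, visual rating versus controls on 0–100 scale (0 no effect, 100 complete control).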

[3] = test system: blackgrass (Alopecurus myosuroides); experiment: Test A postemergence, blackgrass; settings: Alopecurus myosuroides, post-emergence, 240 h, Postemergence, 0 to 100 scale, 10 days, read-out: Plant response rating, Blackgrass; for pest or weed control at 31 g/ha: 31 g ai/ha; for pest or weed control at 125 g/ha: 125 g ai/ha
How it was run: as §1

[4] = test system: barnyardgrass (Echinochloa crus-galli); experiment: Test A preemergence, barnyardgrass; settings: 10 days
How it was run: as §1

corn (Zea mays) = experiment: Test A postemergence, corn; settings: Zea mays, post-emergence, 240 h, Postemergence, 0 to 100 scale, 10 days; for Corn plant response rating (crop injury, 0 = no effect, 100 = complete kill) at 31 g/ha: 31 g ai/ha; for Corn plant response rating (crop injury, 0 = no effect, 100 = complete kill) at 125 g/ha: 125 g ai/ha
How it was run: as §1

kochia (Bassia scoparia) [5] = experiment: Test A postemergence, kochia; settings: Bassia scoparia, post-emergence, 240 h, 10 days, read-out: Plant response rating, Kochia; for pest or weed control at 31 g/ha: 31 g ai/ha, postemergence, 0 to 100 scale (0 no effect, 100 complete control); for pest or weed control at 125 g/ha: Postemergence, 125 g ai/ha, 0 to 100 scale
How it was run: as §1

[6] = test system: ragweed (common ragweed, Ambrosia artemisiifolia); experiment: Test A preemergence, ragweed; settings: Ambrosia artemisiifolia, pre-emergence, 240 h, 0 to 100 scale, 10 days, read-out: Plant response rating, Ragweed; for pest or weed control at 31 g/ha: 31 g ai/ha; for pest or weed control at 125 g/ha: 125 g ai/ha
How it was run: as §1

[7] = test system: sedge, umbrella (small-flower umbrella sedge, Cyperus difformis); experiment: Test B flooded paddy test, sedge, umbrella; settings: Cyperus difformis; 250 g ai/ha, Flood; visually evaluated after 10 to 14 days; read-out: Plant response rating, Sedge, Umbrella (0 to 100 scale where 0 is no effect and 100 is complete control)
How it was run: as §2

[8] = test system: barnyardgrass (Echinochloa crus-galli); experiment: Test A postemergence, barnyardgrass; settings: Postemergence, 0 to 100 scale, 10 days
How it was run: as §1

[9] = test system: barnyardgrass (Echinochloa crus-galli); experiment: Test B flooded paddy test, barnyardgrass; settings: Echinochloa crus-galli; 250 g ai/ha, Flood; visually evaluated after 10 to 14 days; read-out: Plant response rating, Barnyardgrass (0 to 100 scale where 0 is no effect and 100 is complete control)
How it was run: as §2

[10] = test system: ragweed (common ragweed, Ambrosia artemisiifolia); experiment: Test A postemergence, ragweed; settings: Ambrosia artemisiifolia, post-emergence, 240 h, 10 days, read-out: Plant response rating, Ragweed; for pest or weed control at 31 g/ha: 31 g ai/ha, postemergence, 0 to 100 scale (0 no effect, 100 complete control); for pest or weed control at 125 g/ha: Postemergence, 125 g ai/ha, 0 to 100 scale
How it was run: as §1

[11] = test system: galium (catchweed bedstraw, Galium aparine); experiment: Test A postemergence, galium; settings: Galium, post-emergence, 240 h, 10 days, read-out: Plant response rating, Galium; for pest or weed control at 31 g/ha: 31 g ai/ha, postemergence, 0 to 100 scale (0 no effect, 100 complete control); for pest or weed control at 125 g/ha: Postemergence, 125 g ai/ha, 0 to 100 scale
How it was run: as §1

[12] = test system: wheat (Triticum aestivum); experiment: Test A postemergence, wheat; settings: Triticum aestivum, post-emergence, 240 h, 10 days, read-out: Plant response rating, Wheat; for plant injury at 31 g/ha: 31 g ai/ha, postemergence, 0 to 100 scale (0 no effect, 100 complete control); for plant injury at 125 g/ha: Postemergence, 125 g ai/ha, 0 to 100 scale
How it was run: as §1

[13] = test system: redroot pigweed (Amaranthus retroflexus); experiment: Test A preemergence, redroot pigweed; settings: 0 to 100 scale, 10 days
How it was run: as §1

[14] = 125 g ai/ha, 0 to 100 scale (0 no effect, 100 complete control)

Compound | pest or weed control at 31 g/ha (kochia (Bassia scoparia) [1]) [%] | pest or weed control at 125 g/ha (kochia (Bassia scoparia) [1]) [%] | pest or weed control at 31 g/ha [2] [%] | pest or weed control at 125 g/ha [2] [%] | plant injury at 250 g/ha (rice (Oryza sativa)) [%] | pest or weed control at 31 g/ha [3] [%] | pest or weed control at 125 g/ha [3] [%] | Plant response rating, Barnyardgrass ([4]; 31 g ai/ha, 0 to 100 scale) | Plant response rating, Barnyardgrass [4, 14] | Corn plant response rating (crop injury, 0 = no effect, 100 = complete kill) at 31 g/ha (corn (Zea mays)) [%] | Corn plant response rating (crop injury, 0 = no effect, 100 = complete kill) at 125 g/ha (corn (Zea mays)) [%] | pest or weed control at 31 g/ha (kochia (Bassia scoparia) [5]) [%] | pest or weed control at 125 g/ha (kochia (Bassia scoparia) [5]) [%] | pest or weed control at 31 g/ha [6] [%] | pest or weed control at 125 g/ha [6] [%] | pest or weed control at 250 g/ha [7] [%] | Plant response rating, Barnyardgrass ([8]; 31 g ai/ha) | Plant response rating, Barnyardgrass ([8]; 125 g ai/ha) | pest or weed control at 250 g/ha [9] [%] | pest or weed control at 31 g/ha [10] [%] | further results
CC(=O)OCOc1c(Cl)nn(C)c(=O)c1-c1c(C)sc2cccc(Cl)c12 [Compound 1, 5-[(acetyloxy)methoxy]-6-chloro-4-(4-chloro-2-methylbenzo[b]thien-3-yl)-2-methyl-3(2H)-pyridazinone] | 0 | 10 | 0 | 10 | 10 | 0 | 0 | 0 | 0 | 0 | 0 | 10 | 50 | 10 | 20 | 0 | 0 | 40 | 0 | 70 | pest or weed control at 125 g/ha [10]: 90%; pest or weed control at 31 g/ha [11]: 70%; pest or weed control at 125 g/ha [11]: 90%; plant injury at 31 g/ha [12]: 0%; plant injury at 125 g/ha [12]: 0%; Plant response rating, Pigweed, Redroot ([13]; 31 g ai/ha): 80; Plant response rating, Pigweed, Redroot ([13]; 125 g ai/ha): 90
CC(=O)OCOc1c(Cl)nn(C)c(=O)c1-c1c(C)ccc2ccccc12 [Compound 5, 5-[(acetyloxy)methoxy]-6-chloro-2-methyl-4-(2-methyl-1-naphthalenyl)-3(2H)-pyridazinone] | 40 | 70 | 70 | 100 | 35 | 20 | 50 | 80 | 100 | 0 | 10 | 30 | 60 | 100 | 100 | 85 | 40 | 80 | 40 | 80 | pest or weed control at 125 g/ha [10]: 90%; pest or weed control at 31 g/ha [11]: 100%; pest or weed control at 125 g/ha [11]: 100%; plant injury at 31 g/ha [12]: 10%; plant injury at 125 g/ha [12]: 30%; Plant response rating, Pigweed, Redroot ([13]; 31 g ai/ha): 100; Plant response rating, Pigweed, Redroot ([13]; 125 g ai/ha): 100
